# Experimental data from patent publication US8906844B2 (SYNTONIX PHARMACEUTICALS, dated 2014).
# Non-standard residues stand in square brackets, D forms with d. No end group written: not given here. βAla = NCCC(=O)O
# How the values were obtained:
# soluble human FcRn = biological target: T1, soluble human FcRn (Homo sapiens, UniProt P55899); assay: Equilibrium binding constants (KD) by surface plasmon resonance (Biacore); conditions: pH 6
# T1 construct: made in house; host or cells: Chinese hamster ovary (CHO) cells, glutamine synthetase expression system
# Description: (§1) The following steps were performed to cross-link soluble human or cynomolgus FcRn to the dextran surface of a CM5 sensor chip (Biacore AB, Uppsala, Sweden) by an amine coupling reaction involving 1-ethyl-(3-dimethylaminopropyl)-carbodiimide hydrochloride (EDC) (Biacore AB, Uppsala, Sweden) and N-hydroxysuccinimide (NHS) (Biacore AB, Uppsala, Sweden) as recommended by Biacore (BIAapplications Handbook, version AB, section 4.2, Biacore AB, Uppsala, Sweden). The FcRn protein was diluted in 50 mM sodium acetate, pH 4.5 (Biacore AB, Uppsala, Sweden) to a concentration of 10 to 30 μg/ml and used to coat one flow cell on the sensor chip. Residual sites on the FcRn flow cell were blocked with 1 M ethanolamine hydrochloride pH 8.5 (Biacore AB, Uppsala, Sweden). A control flow cell was blocked with ethanolamine for reference subtraction. For analysis of the monomeric peptides, FcRn was coated to a final density of 4000-5000 response units (RU). For analysis of the peptide dimers, FcRn was coated to a density of 2000-2500 RU. […]
# (§2) Ten 2-fold dilutions of the peptide were injected over the FcRn-CM5 chip at a rate of 20 μl/min for 2 min. […] Sensorgrams were generated and analyzed using BiaEval software version 3.1 (Biacore AB, Uppsala, Sweden). […]
# Sensorgrams were generated and analyzed using BiaEval software version 3.1 (Biacore AB, Uppsala, Sweden). […]
# [1] = biological target: T2, soluble human FcRn (shFcRn) (Homo sapiens, UniProt P55899); format: binding; conditions: IgG competition ELISA, 3 nM human IgG, buffer pH 6
# T2 construct: made in house; host or cells: Chinese hamster ovary (CHO) cells, glutamine synthetase expression system
# Description: A solution of soluble human FcRn (shFcRn) in Tris buffer was dialyzed twice, each time for 3 hours in 2 liters of PBS, pH 8.0. The quantity of recovered shFcRn was determined by measuring the absorbance at 280 nm. […] Biotinylation of shFcRn was accomplished by treating the dialyzed shFcRn with a 2-fold-molar excess of Sulfo-NHS-LC-Biotin (Invitrogen, Carlsbad, Calif.) for 2 hours at 4° C. Afterwards, the shFcRn-Sulfo-NHS-LC-Biotin reaction mixture was dialyzed twice in 2 L of cold PBS, followed by another absorbance reading to determine the concentration of the remaining protein. The biotinylated shFcRn was stored at 4° C. with 0.1% sodium azide until needed.
# The wells were coated with 100 μl/well of 1 μg/ml biotinylated-shFcRn in Buffer A. The plate was sealed and incubated at 37° C. for 2 hours. Afterwards, the plate was washed with 200 μl/well of Buffer B (Buffer B: 100 mM MES pH 6, 150 mM NaCl, 0.5% BSA IgG-free (Jackson ImmunoResearch, West Grove, Pa.), 0.05% Tween-20). Then, 50 μl/well of 6 nM human IgG (Calbiochem, San Diego, Calif.) in Buffer B as well as 50 μl/well of the various peptide competitors (at various concentration) were added, so that the final concentration of IgG in the well was 3 nM. […] Once color developed, 100 μl/well of TMB stop solution (KPL, Gaithersburg, Md.) was added and the absorbance was measured at 450 nm.
# [2] = biological target: T3, soluble human FcRn (shFcRn) (human, UniProt P55899 24-297; P61769 21-119, biotinylated with Sulfo-NHS-LC-Biotin in the ELISA; amine-coupled to a CM5 chip in SPR); assay: SPR, pH 6; small-letter c (D-cysteine) at both Cys positions
# T3 construct: also called biotinylated shFcRn
# Description: as §1, with “µg/ml” for “μg/ml”
# as §2, with “A. Representative Procedure for the Determination of Binding Constant of Monomeric Peptides Ten” for “Ten”, “µl/min” for “μl/min”
# [3] = biological target: T3, soluble human FcRn (shFcRn); assay: competition ELISA vs human IgG
Kd [2] [µM],IC50 [3] [µM],Molecule,Kd (soluble human FcRn) [µM],IC50 [1] [µM]
–,–,QRFCGHF[βAla]LYPCNGP (cysteine pairing not given here) [Peptide No. 25],> 250,> 125
200,> 500,QRFXTGHFGGLYPXNGP (D-Cys4; D-Cys14; disulfide; C-terminal amide) [Peptide No. 31],–,–
